# Patent publication US8785483B2, “Methods for treating COPD” (The Board of Regents of the University of Texas System, priority 2010, dated 2014)
# Tested on: STAT-6
# Experiment: RWE-induced STAT-6 phosphorylation in mouse lung epithelium (immunostaining)
# Format: in vivo
# Conditions: RWE-sensitized and challenged mice, fidarestat 7 mg/kg body wt/day in drinking water, 20 h after challenge
# Experimental: FIGS. 9A-9B. AR inhibition prevents phosphorylation of STAT-6 in mouse lung epithelium. The mice were sensitized and challenged with PBS or RWE, without or with AR inhibitor and 20 h later lungs were perfused and fixed with 4% paraformaldehyde, embedded in paraffin, and sectioned to […]. The sections were immunostained with p-STAT-6 specific antibodies using immunofluoroscence secondary antibodies (A) or DAB-based HRP conjugated antibodies counterstained with hematoxylin and eosin (B). Photomicrographs were acquired by fluorescence or light microscopy. A representative field for each group is shown (magnification: 200×). […] RWE, ragweed pollen extract; ARI, aldose reductase inhibitor.
# Wild type C57BL/6 and Balb/cJ mice were purchased from Harlan Sprague-Dawley (San Diego, Calif., USA) and AR null mice on C57BL/6 background were bread by us at Animal resource center, UTMB, Galveston, Tex. Six-eight weeks old female mice were sensitized with RWE as previously described (Hwang et al., FASEB J. 19: 795-797, 2005). […]
# Approximately 20 h after RWE-challenge, mice are killed, and their lungs perfused and fixed with 4% paraformaldehyde, embedded in paraffin, and 5 μm sections were obtained. […] Photomicrographs were acquired by a Photometrix CoolSNAP Fx camera mounted on a NIKON Eclipse TE 200 UV microscope using fluorescence or bright-field microscopy, respectively.
compound,measurement,value
"NC(=O)[C@@H]1C[C@]2(NC(=O)NC2=O)c2cc(F)ccc2O1 [fidarestat, (2S,4S)-2-aminoformyl-6-fluoro-spiro[chroman-4,4′-imidazolidine]-2′,5′-dione]",RWE-induced phospho-STAT-6 staining in lung epithelium,prevented by AR inhibition
